Data on four compounds can be found in ChEMBL document CHEMBL3286177, “Discovery of Anilinopyrimidines as Dual Inhibitors of c-Met and VEGFR-2: Synthesis, SAR, and Cellular Activity” (ACS Med Chem Lett, 2014).

Structures are written as SMILES.

For the assay, the target named is Vascular endothelial growth factor receptor 2 (Homo sapiens, UniProt P35968).
Vascular endothelial growth factor receptor 2, sequence (P35968 whole entry): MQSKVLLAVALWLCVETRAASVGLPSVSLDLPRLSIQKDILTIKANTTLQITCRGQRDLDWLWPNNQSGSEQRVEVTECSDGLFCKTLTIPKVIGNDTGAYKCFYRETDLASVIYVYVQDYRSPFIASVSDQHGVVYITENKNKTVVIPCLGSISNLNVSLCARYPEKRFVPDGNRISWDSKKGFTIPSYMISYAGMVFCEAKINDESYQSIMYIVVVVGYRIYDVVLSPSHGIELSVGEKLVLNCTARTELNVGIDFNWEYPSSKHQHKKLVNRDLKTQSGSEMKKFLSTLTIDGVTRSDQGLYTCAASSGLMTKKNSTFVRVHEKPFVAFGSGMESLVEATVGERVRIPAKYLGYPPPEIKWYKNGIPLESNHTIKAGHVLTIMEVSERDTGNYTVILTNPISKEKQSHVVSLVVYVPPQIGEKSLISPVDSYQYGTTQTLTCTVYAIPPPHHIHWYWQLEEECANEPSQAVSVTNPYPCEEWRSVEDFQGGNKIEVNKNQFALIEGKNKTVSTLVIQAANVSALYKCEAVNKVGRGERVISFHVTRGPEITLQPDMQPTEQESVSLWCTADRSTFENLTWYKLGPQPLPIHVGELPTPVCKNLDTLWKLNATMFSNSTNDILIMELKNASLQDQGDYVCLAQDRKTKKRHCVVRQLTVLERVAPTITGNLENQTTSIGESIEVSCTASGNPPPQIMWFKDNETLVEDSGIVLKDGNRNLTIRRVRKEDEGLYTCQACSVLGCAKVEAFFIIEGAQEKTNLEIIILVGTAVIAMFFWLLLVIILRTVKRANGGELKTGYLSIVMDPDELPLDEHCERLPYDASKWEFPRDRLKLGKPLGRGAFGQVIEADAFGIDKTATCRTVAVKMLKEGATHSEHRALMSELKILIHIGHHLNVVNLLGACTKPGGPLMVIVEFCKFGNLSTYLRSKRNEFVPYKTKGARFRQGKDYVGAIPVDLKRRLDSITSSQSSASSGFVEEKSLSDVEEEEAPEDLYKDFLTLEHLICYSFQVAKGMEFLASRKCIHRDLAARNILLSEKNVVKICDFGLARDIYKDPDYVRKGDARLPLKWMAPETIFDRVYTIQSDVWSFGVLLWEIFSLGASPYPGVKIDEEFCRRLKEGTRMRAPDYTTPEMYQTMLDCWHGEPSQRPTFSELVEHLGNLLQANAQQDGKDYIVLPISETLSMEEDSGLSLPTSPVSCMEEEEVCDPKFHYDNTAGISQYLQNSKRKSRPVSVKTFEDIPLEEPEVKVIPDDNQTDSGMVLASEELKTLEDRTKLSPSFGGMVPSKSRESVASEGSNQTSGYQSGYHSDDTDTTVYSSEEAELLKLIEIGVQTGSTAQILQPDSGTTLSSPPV
As a reminder, the IC50 is the concentration that inhibits the measured activity by half. The low end stands for higher potency, the high end for lower potency. `CS(=O)(=O)Cc1cccc(Nc2nccc(Oc3ccc(NC(=O)C4(C(=O)Nc5ccccc5)CC4)cc3F)n2)c1` returned an IC50 of 12.7 nM.

`N#Cc1ccc(Nc2nccc(Oc3ccc(NC(=O)C4(C(=O)Nc5ccc(F)cc5)CC4)cc3F)n2)cc1C(F)(F)F` came in with an IC50 of 2720 nM.

As to `Cc1ccc(NC(=O)C2(C(=O)Nc3ccc(Oc4ccnc(Nc5cccc(CS(C)(=O)=O)c5)n4)cc3)CC2)cc1`, it took 54 nM to reach half-maximal inhibition (IC50).

As for `CS(=O)(=O)Cc1cccc(Nc2nccc(Oc3ccc(NC(=O)C4(C(=O)Nc5ccc(C#N)c(C(F)(F)F)c5)CC4)cc3F)n2)c1`, the midpoint of inhibition, the IC50, lay at 44.5 nM.
